Test [1] has as its target T1, Interstitial collagenase (Homo sapiens) (UniProt P03956).
T1 sequence (whole entry): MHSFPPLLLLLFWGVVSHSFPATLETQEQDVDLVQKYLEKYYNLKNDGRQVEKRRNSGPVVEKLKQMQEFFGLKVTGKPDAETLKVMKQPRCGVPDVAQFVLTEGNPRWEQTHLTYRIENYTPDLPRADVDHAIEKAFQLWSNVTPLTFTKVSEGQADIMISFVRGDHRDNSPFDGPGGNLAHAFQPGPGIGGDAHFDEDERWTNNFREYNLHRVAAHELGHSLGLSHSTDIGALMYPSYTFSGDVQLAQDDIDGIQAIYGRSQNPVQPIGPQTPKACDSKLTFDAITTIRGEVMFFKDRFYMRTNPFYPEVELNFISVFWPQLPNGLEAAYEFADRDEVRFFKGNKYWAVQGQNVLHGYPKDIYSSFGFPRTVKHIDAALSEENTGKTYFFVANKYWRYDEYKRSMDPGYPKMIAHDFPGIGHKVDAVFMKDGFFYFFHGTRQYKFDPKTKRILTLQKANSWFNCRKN
As to the kind of experiment: Inhibition of recombinant human Matrix metalloprotease-1 at 1000 nM.

The target of test [2] is T2, Stromelysin-1 (Homo sapiens, UniProt P08254). The experiment in a line: Inhibition of recombinant human Matrix metalloprotease-3 at 1000 nM.
Target sequence in this assay (P08254 100-477 limits assumed): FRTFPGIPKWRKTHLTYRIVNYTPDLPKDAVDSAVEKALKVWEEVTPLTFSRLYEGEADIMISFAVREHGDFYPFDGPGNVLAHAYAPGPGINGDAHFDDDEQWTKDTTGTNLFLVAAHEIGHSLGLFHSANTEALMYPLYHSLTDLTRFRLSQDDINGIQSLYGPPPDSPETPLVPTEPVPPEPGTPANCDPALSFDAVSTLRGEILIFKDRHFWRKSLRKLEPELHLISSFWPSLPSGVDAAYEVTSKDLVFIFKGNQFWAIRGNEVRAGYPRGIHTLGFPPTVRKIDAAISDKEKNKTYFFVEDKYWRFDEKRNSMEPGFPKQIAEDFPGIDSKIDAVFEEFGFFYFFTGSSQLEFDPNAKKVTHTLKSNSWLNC
Test [3] concerns the target T3, Matrix metalloproteinase-9 (Homo sapiens, UniProt P14780). As to conditions: 1000 nM.
Description: Inhibition of recombinant human Matrix metalloprotease-9 at 1000 nM
The target of test [4] is T4, Disintegrin and metalloproteinase domain-containing protein 17 (Homo sapiens, UniProt P78536). As to conditions: 1000 nM.
Description: Inhibition of recombinant human TACE at 1000 nM
For test [5], the target named is T2, Stromelysin-1. As to the kind of experiment: Inhibition of recombinant human Matrix metalloprotease-3.
Target sequence in this assay (P08254 whole entry): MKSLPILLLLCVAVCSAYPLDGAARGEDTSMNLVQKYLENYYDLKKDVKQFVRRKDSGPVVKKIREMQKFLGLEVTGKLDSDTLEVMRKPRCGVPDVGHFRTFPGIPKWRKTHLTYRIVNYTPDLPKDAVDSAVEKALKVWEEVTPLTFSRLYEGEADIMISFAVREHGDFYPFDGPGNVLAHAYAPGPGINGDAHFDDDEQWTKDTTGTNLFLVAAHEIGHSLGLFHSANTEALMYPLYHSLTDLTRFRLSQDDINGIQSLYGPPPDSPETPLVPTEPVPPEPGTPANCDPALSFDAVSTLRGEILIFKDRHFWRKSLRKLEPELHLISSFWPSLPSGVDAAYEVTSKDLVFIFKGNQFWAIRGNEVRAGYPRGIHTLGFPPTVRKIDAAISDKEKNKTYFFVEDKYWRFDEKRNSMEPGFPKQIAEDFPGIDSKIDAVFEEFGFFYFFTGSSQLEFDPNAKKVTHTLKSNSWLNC
Test [6] addresses T5, Interstitial collagenase (Homo sapiens, UniProt P03956).
T5 sequence (P03956 whole entry): T1 sequence (whole entry)
The experiment in a line: Inhibition of recombinant human matrix metalloprotease-1.

Test [7] has as its target T3, Matrix metalloproteinase-9. As to the kind of experiment: Inhibition of recombinant human Matrix metalloprotease-9.
Test [8] concerns the target T4, Disintegrin and metalloproteinase domain-containing protein 17. The experiment in a line: Inhibition of recombinant human tumor necrosis factor-alpha converting enzyme.
The target of test [9] is T5, Interstitial collagenase. The experiment in a line: Inhibition of recombinant human Matrix metalloprotease-1.
Test [10] deals with T1, Interstitial collagenase (Homo sapiens). As to the kind of experiment: Inhibition of recombinant human matrix metalloprotease-1 at 1000 nM.

T3 sequence (P14780 whole entry, the tested form may be a part): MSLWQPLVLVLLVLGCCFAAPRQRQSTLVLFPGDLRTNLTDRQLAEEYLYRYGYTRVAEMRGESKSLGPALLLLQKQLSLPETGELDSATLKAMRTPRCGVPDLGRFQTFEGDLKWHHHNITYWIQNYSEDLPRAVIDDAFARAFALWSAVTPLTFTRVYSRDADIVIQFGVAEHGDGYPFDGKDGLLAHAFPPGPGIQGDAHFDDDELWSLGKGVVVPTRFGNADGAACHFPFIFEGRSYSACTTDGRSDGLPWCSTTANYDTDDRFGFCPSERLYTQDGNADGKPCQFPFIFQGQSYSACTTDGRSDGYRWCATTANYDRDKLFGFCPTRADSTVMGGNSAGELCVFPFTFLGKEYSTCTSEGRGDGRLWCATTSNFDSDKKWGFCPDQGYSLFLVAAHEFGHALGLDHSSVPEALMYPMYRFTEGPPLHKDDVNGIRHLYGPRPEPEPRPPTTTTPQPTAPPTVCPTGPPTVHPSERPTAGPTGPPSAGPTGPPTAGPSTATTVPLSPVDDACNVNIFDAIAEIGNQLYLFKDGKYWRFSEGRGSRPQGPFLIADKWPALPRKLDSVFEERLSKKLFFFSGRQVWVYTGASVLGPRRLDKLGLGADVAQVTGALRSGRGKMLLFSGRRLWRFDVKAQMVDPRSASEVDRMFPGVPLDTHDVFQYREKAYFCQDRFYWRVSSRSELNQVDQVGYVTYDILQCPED
T4 sequence (P78536 whole entry, the tested form may be a part): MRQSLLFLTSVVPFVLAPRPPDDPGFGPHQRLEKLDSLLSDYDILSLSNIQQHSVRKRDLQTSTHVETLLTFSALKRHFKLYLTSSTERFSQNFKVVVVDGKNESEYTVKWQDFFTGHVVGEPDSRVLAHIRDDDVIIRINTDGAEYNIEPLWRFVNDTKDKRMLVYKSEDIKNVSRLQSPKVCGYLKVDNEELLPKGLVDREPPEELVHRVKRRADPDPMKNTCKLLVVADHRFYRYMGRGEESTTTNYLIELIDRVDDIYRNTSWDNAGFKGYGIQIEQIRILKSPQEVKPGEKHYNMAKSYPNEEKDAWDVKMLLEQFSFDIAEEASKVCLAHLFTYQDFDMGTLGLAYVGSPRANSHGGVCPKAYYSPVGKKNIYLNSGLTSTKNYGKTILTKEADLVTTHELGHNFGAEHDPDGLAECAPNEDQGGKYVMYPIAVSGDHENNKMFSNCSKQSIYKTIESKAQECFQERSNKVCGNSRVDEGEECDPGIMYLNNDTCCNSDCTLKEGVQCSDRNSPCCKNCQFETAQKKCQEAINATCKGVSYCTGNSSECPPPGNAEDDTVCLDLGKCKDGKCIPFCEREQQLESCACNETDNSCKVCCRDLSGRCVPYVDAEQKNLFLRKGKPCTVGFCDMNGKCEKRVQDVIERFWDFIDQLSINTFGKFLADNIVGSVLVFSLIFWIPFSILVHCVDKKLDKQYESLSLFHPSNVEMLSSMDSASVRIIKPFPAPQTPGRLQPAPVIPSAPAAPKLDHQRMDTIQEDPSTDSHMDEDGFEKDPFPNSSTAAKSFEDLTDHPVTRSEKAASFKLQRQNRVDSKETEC

One may read the inhibition as the change of the read-out against control, counted positive when it falls. As to `CCOP(=O)(c1ccc(OC)cc1)N1Cc2ccccc2C[C@H]1C(=O)NO` (single isomer, unassigned), the inhibition in test [1] came to 26%; on Stromelysin-1 [2] it was 9%; in [3] it was 18%; in test [4] it was 41%.

A word on the Ki: it is a measure of affinity in units of concentration, obtained from inhibition or displacement. Turning to `CCOP(=O)(N[C@H](CCC(=O)NCCc1ccccc1)C(=O)NO)c1ccc(OC)cc1` (stereo partly specified), the Ki at Stromelysin-1 [5] was 7.29 nM; on Interstitial collagenase [6] it was 40.4 nM; in test [7], 23.7 nM; in test [8], 27.6 nM.

As to `CCOP(=O)(N[C@H](CC(C)C)C(=O)NO)c1ccc(OC)cc1` (stereo partly specified), the Ki was found to be 69.8 nM at Stromelysin-1 [5], 165 nM in test [7], 5.06 nM in test [8] and 196 nM at Interstitial collagenase [9].

For the molecule `CCOP(=O)(c1ccc(OC)cc1)N1Cc2ccccc2C[C@@H]1C(=O)NO` (single isomer, unassigned), the inhibitory constant (Ki) in test [8] came to 7.15 nM.

With `CCOP(=O)(N[C@@H](CC(C)C)C(=O)NO)c1ccc(OC)cc1` (stereo partly specified), the results for the inhibition (on Stromelysin-1 [2]; in [3]; in test [10]) were 17%, 17% and 10%, respectively. Also, the Ki in [8] is 76.4 nM.

For the molecule `CCOP(=O)(N[C@@H](CCC(=O)NCCc1ccccc1)C(=O)NO)c1ccc(OC)cc1` (stereo partly specified), the inhibition was 47% on Stromelysin-1 [2], 24% in test [3] and 27% in [10]. Further, in test [8], the inhibition constant Ki is 10 nM.

The values are drawn from ChEMBL document CHEMBL1136540, “Discovery of selective phosphonamide-based inhibitors of tumor necrosis factor-alpha converting enzyme (TACE)” (Bioorg Med Chem Lett, 2003).
